Reference: PMC9084902, “Low-Molecular Weight Protamine Overcomes Chondroitin Sulfate Inhibition of Neural Regeneration” (Frontiers in Cell and Developmental Biology, 2022)
Entries after “also recorded” stand apart in the source; their conditions may differ.

What was measured:
[1] = test system: PTPσ ectodomain binding to aggrecan; experiment: solid phase binding of wild-type PTPσ ectodomain to aggrecan, competition by LMWP
Text: The N-terminal extracellular part of PTPσ (protein tyrosine phosphatase sigma; PTPRS) that contains the three Ig domains (amino acids 1-321) and mediates CSPG binding ([Shen et al., 2009]) was cloned using the PTPσ cDNA kindly provided by Dr. John Flanagan (Harvard University). The PTPσ mutant lacking the CS binding site in the Ig1 domain was produced as described ([Shen et al., 2009]). The recombinants were produced as Fc-tagged proteins in 293T HEK cells and purified on protein A Sepharose.
The competition assay for LMWP in binding of PTPσ to aggrecan was done in a similar way as earlier ([Paveliev et al., 2016]). Briefly, after overnight coating with 10 μg/ml aggrecan (150 ul/well) at 4°C 96-well tissue culture plates (Nunc) were washed two times with 0.05% Tween-20 in PBS and were blocked for 1 h at room temperature with 1%BSA and 0.05% Tween-20 in PBS. The recombinant wild type PTPσ ectodomain or the mutated ectodomain lacking CS binding (80 nM) were mixed with different concentrations of LMWP in 1% BSA and 0.05% Tween-20 in PBS, and were incubated in the plates overnight at 4°C. After washing with 0.05% Tween20 (3 times, room temperature), the wells were incubated for 1 h (room temperature) with HRP conjugated goat anti-human FC part of IgG (1:5000, in 1% BSA and 0.05% Tween20 PBS) to detect the bound PTPσ. […]

[2] = test system: NF200+ fibers in trauma hemisphere of spinal cord; experiment: NF200 immunohistochemistry, C5 hemicontusion, subcutaneous delivery; type: in vivo, C57BL6/NHsd mouse; conditions: 16 µg s.c. daily 49 days
Experimental: The effectiveness of systemically delivered LMWP in treatment of spinal cord trauma was tested in the cervical hemicontusion model (Figure 1B). Baseline behavior was assessed 1 week before the trauma surgery, and the results were used for balanced distribution of animals to the 3 experimental groups (“sham”, “trauma + PBS” and “trauma + LMWP”). Each housing cage contained animals from all three groups. Subcutaneous injections to the back area were started on the next day after the trauma and continued daily for 49 days. LMWP was injected subcutaneously at the 16 µg dose in 200 µl of sterile PBS. The groups “sham” and “trauma + PBS” got the same volume of PBS. Behavioral assessment was started 2 weeks after the trauma and finished at the week 12.
The samples for immunohistochemistry (IHC) were taken from all animals tested in the hemicontusion study with subcutaneous 7 weeks treatment (Figure 1B) at the end of the experiment at 12 weeks (Figure 1B). The cervical spinal cord segments were sectioned into 40 microns thick transverse sections from tissue blocks (samples embedded into solid OCT compound by freezing with dry ice) by using microtome (Leica CM3050 S). Few spinal cord samples were excluded from the study due to technical problems in spinal cord dissection or sectioning procedures, and the total amount of 11 spinal cords of the “trauma + PBS” and 7 spinal cords of the “trauma + LMWP” group were analyzed. Every fourth section per animal was chosen for IHC neurofilament staining making the section interval […]. The sections were stained with primary antibodies against NF200 (ab8135, Abcam, 1:500) in blocking buffer (1xTBS with 0.5% TX-100 and with 3%BSA) and AlexaFluor 594 (REF A11037, Invitrogen) secondary antibodies at the dilution 1:400 in TBS-T (1xTBS with 0.5% TX-100) on microscope slides. The washings prior to and between the stainings were done with TBS-T, whereas the final wash before mounting with Vectastain mounting medium with DAPI, was done by using reverse osmose water. […]

Sequence: VSRRRRRRGGRRRR [LMWP, low-molecular weight protamine]
- inhibition of PTPσ binding to aggrecan ([1]; 80 nM PTPσ-Fc, 10 μg/ml aggrecan coating, increasing LMWP, overnight 4°C, HRP anti-Fc/OPD 492 nm, n = 3, Figure 5C): progressively decreased by increasing LMWP concentrations; also recorded: clearly inhibited PTPσ binding to aggrecan in a similar manner as HB-GAM
- similarity of LMWP to mutated PTPσ in binding suppression ([1]; aggrecan substrate, increasing LMWP concentrations): mimicked the binding suppression effect seen with the mutated PTPσ
- NF200+ signal area near trauma epicenter versus PBS ([2]; 60 µm rostral, p = 0.0064, no similar trend in the sections around): significant difference of the NF200+ signal area in one section level localized almost in the middle of the trauma epicenter
- area of NF200+ signal on trauma periphery versus PBS ([2]; about ±400 µm from epicenter: 400 µm rostral p = 0.0021, −400 µm caudal p = 0.0346, Mann-Whitney, n = 7–11): increased the area of the NF200+ signal in the section levels located on the trauma periphery
- NF200+ fibers (%) in trauma hemisphere, LMWP versus control group ([2]; week 12, n = 7–11): statistically significant group difference between the LMWP-treated mice and the control mice in NF200+ fibers (%)
